From US9580411B2, “Substituted sulfonamide compounds” (Hoffmann-La Roche Inc., priority 2012, dated 2017)

Target: hTRPA1 (Homo sapiens (Human), UniProt O75762)
Assay: Dose response calcium flux assay (FLIPR), ChanTest hTRPA1-CHO stably transfected cell line
Assay type: cell-based
Settings: CHO-K1 Tet-On human TRPA1 cells, cinnamaldehyde agonist (final 100 uM)
Method: IC50 Determinations of Exemplified Compounds Dose Response Assay: Chan Test hTRPA1-CHO Stably Transfected Cell Line
CHO-K1 Tet-On_HOMSA_TRPA1_Clone_20
Chinese Hamster Ovary cells, inducible expression
• Ham's F-12 with 10% tetracycline-free FBS • 1× penicillin-streptomycin • 1× glutamax • 0.01 mg/ml Blasticidin • 0.40 mg/ml Zeocin • The cell line doubling rate was ˜15 hours. […] Experiments were run at 24 hours post induction. Plating Conditions CHOK1/TRPA1 Cells: • Harvested cells with 0.025% trypsin/EDTA. • Resuspended cells in growth media without selection antibiotics. • Measured cell density and diluted to 2.4×10^5 cells/ml in media containing 1 ug/ml Doxycycline Plate 25 ul/well into 384 well black/clear tissue culture-treated plates. • Incubated overnight at 37° C. Calcium Flux Assay: Day of Assay: Reagents: • Replacement Buffer: Hank's Balanced Salt Solution, 20 mM HEPES along with 0.005% BSA and 2× Probenecid • Dye Loading Buffer: Cal-3 NW Calcium dye was prepared by dissolving the contents of one vial with […] Hank's Balanced Salt Solution containing 20 mM HEPES. • Control compounds for CHOK1/TRPA1 cells: AP-18, stock 10 mM, prepare 3.5× compound dilution in a Compound Buffer (HBSS/20 mM HEPES/0.005% BSA)—final concentration 10 uM. • Preparation of Cinnamaldehyde (agonist addition): FW=132.16 • Specific gravity=1.046 gm/cc • 1.32 gm/1.046 gm/cc=1.26 ml of stock • Add 1.74 ml DMSO=3.3 M stock • Working solution 4.5× (final 100 uM in Compound Buffer: HBSS/20 mM HEPES/0.005% BSA) • Compounds dilutions were prepared from 5 or 10 mM stock (100% DMSO): • Adjustments of volumes and concentrations were made at time of titration to reflect desired final assay concentrations. • Compounds were tested at either 20 μM three folds dilution 11 steps out or 30 μM two folds dilution 11 steps out. • 3 μl of diluted compound were transferred into Weidmann 384-well plate in duplicates side-by-side. • Compound plates were resuspended with 100 ul of HBSS/20 mM HEPES/0.005% BSA buffer (Compound Buffer): • column 1A-H: buffer/DMSO (bk) • column 2A-H: AP-18 (control antagonist for CHOK1 TRPA1 cells) • column 1I-P: ATP (control for CHOK1 teton cells) • column 2 I-P: 2APB (control antagonist for CHOK1/TRPM8 cells). Growth media was removed from the cell plates (20 ul) and 20 ul of the Replacement Buffer was added followed by addition of 25 ul of diluted dye. All three steps were performed using a Plate Washer BioTek 407. The plates were then incubated for 30′ at RT.
After incubation, both the cell and compound plates were brought to the FLIPR and 20 ul of the diluted compounds/antagonist/bk were transferred to the cell plates by the FLIPR. Plates were then incubated for 30′ at room temperature. After 30′ incubation, plates were returned to the FLIPR and 20 ul of 4.5× Cinnamaldehyde was added to the cell plates. During the compound addition as well as agonist addition, fluorescence readings were taken simultaneously from all 384 wells of the cell plate every 1.5 seconds. Five readings were taken to establish a stable baseline, then 20 ul of sample was rapidly (30 ul/sec) and simultaneously added to each well of the cell plate. The fluorescence was continuously monitored before, during and after sample/agonist addition for a total elapsed time of 100 seconds (compound addition) and 120 seconds (agonist addition). Responses (increase in peak fluorescence) in each well following agonist addition was determined. The initial fluorescence reading from each well, prior to ligand stimulation, was used a zero baseline value for the data from that well.

Sequence of hTRPA1 (O75762 whole entry): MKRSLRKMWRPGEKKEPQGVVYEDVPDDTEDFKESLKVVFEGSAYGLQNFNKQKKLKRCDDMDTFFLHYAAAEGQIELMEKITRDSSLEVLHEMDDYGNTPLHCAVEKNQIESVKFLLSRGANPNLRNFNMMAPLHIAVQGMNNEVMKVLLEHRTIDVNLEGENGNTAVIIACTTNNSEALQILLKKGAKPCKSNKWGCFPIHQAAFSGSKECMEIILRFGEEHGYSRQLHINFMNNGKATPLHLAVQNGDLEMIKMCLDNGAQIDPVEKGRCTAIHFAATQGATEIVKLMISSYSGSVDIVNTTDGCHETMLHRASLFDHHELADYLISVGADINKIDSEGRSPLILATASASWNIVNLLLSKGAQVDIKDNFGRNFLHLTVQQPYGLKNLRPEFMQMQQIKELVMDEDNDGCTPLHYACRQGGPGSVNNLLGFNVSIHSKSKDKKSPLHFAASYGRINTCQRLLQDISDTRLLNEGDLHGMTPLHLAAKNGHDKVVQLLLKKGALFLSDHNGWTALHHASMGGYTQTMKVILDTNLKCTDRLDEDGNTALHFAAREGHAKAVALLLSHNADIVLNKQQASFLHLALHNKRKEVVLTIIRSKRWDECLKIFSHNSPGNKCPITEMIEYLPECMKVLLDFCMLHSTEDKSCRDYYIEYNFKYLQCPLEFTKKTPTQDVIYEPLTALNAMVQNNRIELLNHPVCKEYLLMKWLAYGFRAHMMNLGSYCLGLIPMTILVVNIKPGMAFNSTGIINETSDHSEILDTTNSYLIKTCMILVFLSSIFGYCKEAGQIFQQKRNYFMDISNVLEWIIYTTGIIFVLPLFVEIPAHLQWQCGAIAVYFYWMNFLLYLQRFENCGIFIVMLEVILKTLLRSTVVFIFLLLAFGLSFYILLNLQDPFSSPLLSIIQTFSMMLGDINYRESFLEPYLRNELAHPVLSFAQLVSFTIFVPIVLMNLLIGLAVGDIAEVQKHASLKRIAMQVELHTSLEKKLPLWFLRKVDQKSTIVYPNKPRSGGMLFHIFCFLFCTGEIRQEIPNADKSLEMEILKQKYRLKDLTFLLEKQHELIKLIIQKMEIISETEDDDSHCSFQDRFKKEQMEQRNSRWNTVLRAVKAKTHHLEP

Structure (SMILES)	IC50
CC(C)N(CC(=O)NCc1cccc(-c2ccc(C(F)(F)F)cc2)c1)S(=O)(=O)c1cccc(F)c1 [Example 48, 2-[(3-Fluoro-benzenesulfonyl)-isopropyl-amino]-N-(4′-trifluoromethyl-biphenyl-3-ylmethyl)-acetamide]	0.034 µM
CC(O)CN(CC(=O)NCc1cccc(-c2ccc(C(F)(F)F)cc2)c1)S(=O)(=O)c1ccc(F)cc1 (stereo not shown) [Example 20, 2-[(4-Fluoro-benzenesulfonyl)-(2-hydroxy-propyl)-amino]-N-(4′-trifluoromethyl-biphenyl-3-ylmethyl)-acetamide]	0.16 µM
CC(C)N(CC(=O)NCc1ccc(-c2cccc(C(F)(F)F)c2)cc1)S(=O)(=O)c1ccc(F)cc1 [Example 34, 2-[(4-Fluoro-benzenesulfonyl)-isopropyl-amino]-N-(3′-trifluoromethyl-biphenyl-4-ylmethyl)-acetamide]	3.66 µM
CN(CC(=O)NCc1cc(-c2ccc(C(F)(F)F)cc2)ncn1)S(=O)(=O)c1ccc(F)cc1 [Example 21, 2-[(4-Fluoro-benzenesulfonyl)-methyl-amino]-N-[6-(4-trifluoromethyl-phenyl)-pyrimidin-4-ylmethyl]-acetamide]	0.097 µM
CC(C)N(CC(=O)NCc1cc(-c2ccc(C(F)(F)F)cc2)ncn1)S(=O)(=O)c1ccccc1C#N [Example 65, 2-[(2-Cyano-benzenesulfonyl)-isopropyl-amino]-N-[6-(4-trifluoromethyl-phenyl)-pyrimidin-4-ylmethyl]-acetamide]	3.86 µM
CC(C)N(CC(=O)NCc1cccc(-c2ccc(C(F)(F)F)nn2)c1)S(=O)(=O)c1ccc(F)cc1 [Example 66, 2-[(4-Fluoro-benzenesulfonyl)-isopropyl-amino]-N-[3-(6-trifluoromethyl-pyridazin-3-yl)-benzyl]-acetamide]	0.17 µM
CC(C)N(CC(=O)NCc1ccnc(-c2ccc(C(F)(F)F)cc2)c1)S(=O)(=O)c1cccc(F)c1 [Example 59, 2-[(3-Fluoro-benzenesulfonyl)-isopropyl-amino]-N-[2-(4-trifluoromethyl-phenyl)-pyridin-4-ylmethyl]-acetamide]	0.099 µM
CC(C)N(CC(=O)NCc1ccnc(-c2ccc(C(F)(F)F)nc2)c1)S(=O)(=O)c1ccc(F)cc1 [Example 58, 2-[(4-Fluoro-benzenesulfonyl)-isopropyl-amino]-N-(6′-trifluoromethyl-[2,3′]bipyridinyl-4-ylmethyl)-acetamide]	0.23 µM
CN(CC(=O)NCc1ccc(F)c(-c2ccc(C(F)(F)F)cc2)c1)S(=O)(=O)c1ccc(F)cc1 [Example 8, 2-[(4-Fluoro-benzenesulfonyl)-methyl-amino]-N-(6-fluoro-4′-trifluoromethyl-biphenyl-3-ylmethyl)-acetamide]	0.15 µM
CC(C)N(CC(=O)NCc1cccc(-c2cnc(C(F)(F)F)cn2)c1)S(=O)(=O)c1ccc(Cl)nc1 [Example 72, 2-[(6-Chloro-pyridine-3-sulfonyl)-isopropyl-amino]-N-[3-(5-trifluoromethyl-pyrazin-2-yl)-benzyl]-acetamide]	0.233 µM
CC(C)N(CC(=O)NCc1cccc(-c2cnc(C(F)(F)F)nc2)c1)S(=O)(=O)c1ccc(F)cc1 [Example 68, 2-[(4-Fluoro-benzenesulfonyl)-isopropyl-amino]-N-[3-(2-trifluoromethyl-pyrimidin-5-yl)-benzyl]-acetamide]	0.047 µM
CC(C)N(CC(=O)NCc1cncc(-c2ccc(C(F)(F)F)cc2)c1)S(=O)(=O)c1ccc(F)cc1 [Example 57, 2-[(4-Fluoro-benzenesulfonyl)-isopropyl-amino]-N-[5-(4-trifluoromethyl-phenyl)-pyridin-3-ylmethyl]-acetamide]	0.18 µM
CC(C)[C@H](C(=O)NCc1cccc(-c2ccc(C(F)(F)F)cc2)c1)N(C)S(=O)(=O)c1ccc(F)cc1 [Example 6, (R)-2-[(4-Fluoro-benzenesulfonyl)-methyl-amino]-3-methyl-N-(4′-trifluoromethyl-biphenyl-3-ylmethyl)-butyramide]	1.11 µM
CC(C)N(CC(=O)NCc1ccc(F)c(-c2ccc(C(F)(F)F)cc2)c1)S(=O)(=O)c1ccc(F)cc1 [Example 35, 2-[(4-Fluoro-benzenesulfonyl)-isopropyl-amino]-N-(6-fluoro-4′-trifluoromethyl-biphenyl-3-ylmethyl)-acetamide]	0.054 µM
CC(C)N(CC(=O)NCc1cccc(-c2ccc(C(F)(F)F)cc2)c1)S(=O)(=O)c1ccc(F)cc1 [Example 39, 2-[(4-Fluoro-benzenesulfonyl)-isopropyl-amino]-N-(4′-trifluoromethyl-biphenyl-3-ylmethyl)-acetamide]	0.051 µM
CCN(CC(=O)NCc1cc(-c2ccc(C(F)(F)F)cc2)ncn1)S(=O)(=O)c1ccc(F)cc1 [Example 28, 2-[Ethyl-(4-fluoro-benzenesulfonyl)-amino]-N-[6-(4-trifluoromethyl-phenyl)-pyrimidin-4-ylmethyl]-acetamide]	0.033 µM
CC(C)N(CC(=O)NCc1cc(-c2ccc(C(F)(F)F)cc2)ncn1)S(=O)(=O)c1ccc(F)cc1 [Example 27, 2-[(4-Fluoro-benzenesulfonyl)-isopropyl-amino]-N-[6-(4-trifluoromethyl-phenyl)-pyrimidin-4-ylmethyl]-acetamide]	0.052 µM
CC(C)N(CC(=O)NCc1cc(-c2ccc(C(F)(F)F)cc2)ncn1)S(=O)(=O)c1cccc(F)c1 [Example 49, 2-[(3-Fluoro-benzenesulfonyl)-isopropyl-amino]-N-[6-(4-trifluoromethyl-phenyl)-pyrimidin-4-ylmethyl]-acetamide]	0.07 µM
CN(CC(=O)NCc1cc(-c2ccc(C(F)(F)F)cc2)ncn1)S(=O)(=O)c1cccs1 [Example 26, 2-[methyl-(thiophene-2-sulfonyl)-amino]-N-[6-(4-trifluoromethyl-phenyl)-pyrimidin-4-ylmethyl]-acetamide]	0.34 µM
CN(C(CO)C(=O)NCc1cccc(-c2ccc(C(F)(F)F)cc2)c1)S(=O)(=O)c1ccc(F)cc1 (stereo not shown) [Example 51, 2-[(4-Fluoro-benzenesulfonyl)-methyl-amino]-3-hydroxy-N-(4′-trifluoromethyl-biphenyl-3-ylmethyl)-propionamide]	0.13 µM
CCN(CC(=O)NCc1cccc(-c2ccc(C(F)(F)F)cc2)c1)S(=O)(=O)c1ccc(F)cc1 [Example 23, 2-[Ethyl-(4-fluoro-benzenesulfonyl)-amino]-N-(4′-trifluoromethyl-biphenyl-3-ylmethyl)-acetamide]	0.029 µM
CN(CC(=O)NCc1ccc(-c2ccc(C(F)(F)F)cc2)cc1)S(=O)(=O)c1ccc(F)cc1 [Example 10, 2-[(4-Fluoro-benzenesulfonyl)-methyl-amino]-N-(4′-trifluoromethyl-biphenyl-4-ylmethyl)-acetamide]	4.8 µM
CC(C)N(CC(=O)NCc1cc(-c2ccc(C(F)(F)F)cc2)ncn1)S(=O)(=O)c1ccc(F)c(F)c1 [Example 69, 2-[(3,4-Difluoro-benzenesulfonyl)-isopropyl-amino]-N-[6-(4-trifluoromethyl-phenyl)-pyrimidin-4-ylmethyl]-acetamide]	0.019 µM
CCN(CC(=O)NCc1cc(F)cc(-c2ccc(C(F)(F)F)cc2)c1)S(=O)(=O)c1ccc(F)cc1 [Example 15, 2-[Ethyl-(4-fluoro-benzenesulfonyl)-amino]-N-(5-fluoro-4′-trifluoromethyl-biphenyl-3-ylmethyl)-acetamide]	0.028 µM
CN(C(C)(C)C(=O)NCc1cccc(-c2ccc(C(F)(F)F)cc2)c1)S(=O)(=O)c1ccc(F)cc1 [Example 7, 2-[(4-Fluoro-benzenesulfonyl)-methyl-amino]-2-methyl-N-(4′-trifluoromethyl-biphenyl-3-ylmethyl)-propionamide]	0.8 µM
